Source: ChEMBL document CHEMBL2073789, “Reversal of P-glycoprotein mediated multidrug resistance by a newly synthesized 1,4-benzothiazipine derivative, JTV-519” (Cancer Lett, 2002)

Tests used:
[1] = biological target: Multidrug resistance-associated protein 1 (MRP1) (Homo sapiens, UniProt P33527); test: TP_TRANSPORTER: inhibition of 125I-azidoAG-A photoaffinity labeling (125I-azidoAG-A: 5 uM, JTV-519: 500 uM) in membrane from KB/MRP cells; format: functional, cell membranes, Membrane vesicle; parameters: scale not given: the % may be the effect or the level left; details: probe 125I-azidoAG-A (5 uM), read-out: Activity
Chain of Multidrug resistance-associated protein 1 (MRP1) (P33527 whole entry): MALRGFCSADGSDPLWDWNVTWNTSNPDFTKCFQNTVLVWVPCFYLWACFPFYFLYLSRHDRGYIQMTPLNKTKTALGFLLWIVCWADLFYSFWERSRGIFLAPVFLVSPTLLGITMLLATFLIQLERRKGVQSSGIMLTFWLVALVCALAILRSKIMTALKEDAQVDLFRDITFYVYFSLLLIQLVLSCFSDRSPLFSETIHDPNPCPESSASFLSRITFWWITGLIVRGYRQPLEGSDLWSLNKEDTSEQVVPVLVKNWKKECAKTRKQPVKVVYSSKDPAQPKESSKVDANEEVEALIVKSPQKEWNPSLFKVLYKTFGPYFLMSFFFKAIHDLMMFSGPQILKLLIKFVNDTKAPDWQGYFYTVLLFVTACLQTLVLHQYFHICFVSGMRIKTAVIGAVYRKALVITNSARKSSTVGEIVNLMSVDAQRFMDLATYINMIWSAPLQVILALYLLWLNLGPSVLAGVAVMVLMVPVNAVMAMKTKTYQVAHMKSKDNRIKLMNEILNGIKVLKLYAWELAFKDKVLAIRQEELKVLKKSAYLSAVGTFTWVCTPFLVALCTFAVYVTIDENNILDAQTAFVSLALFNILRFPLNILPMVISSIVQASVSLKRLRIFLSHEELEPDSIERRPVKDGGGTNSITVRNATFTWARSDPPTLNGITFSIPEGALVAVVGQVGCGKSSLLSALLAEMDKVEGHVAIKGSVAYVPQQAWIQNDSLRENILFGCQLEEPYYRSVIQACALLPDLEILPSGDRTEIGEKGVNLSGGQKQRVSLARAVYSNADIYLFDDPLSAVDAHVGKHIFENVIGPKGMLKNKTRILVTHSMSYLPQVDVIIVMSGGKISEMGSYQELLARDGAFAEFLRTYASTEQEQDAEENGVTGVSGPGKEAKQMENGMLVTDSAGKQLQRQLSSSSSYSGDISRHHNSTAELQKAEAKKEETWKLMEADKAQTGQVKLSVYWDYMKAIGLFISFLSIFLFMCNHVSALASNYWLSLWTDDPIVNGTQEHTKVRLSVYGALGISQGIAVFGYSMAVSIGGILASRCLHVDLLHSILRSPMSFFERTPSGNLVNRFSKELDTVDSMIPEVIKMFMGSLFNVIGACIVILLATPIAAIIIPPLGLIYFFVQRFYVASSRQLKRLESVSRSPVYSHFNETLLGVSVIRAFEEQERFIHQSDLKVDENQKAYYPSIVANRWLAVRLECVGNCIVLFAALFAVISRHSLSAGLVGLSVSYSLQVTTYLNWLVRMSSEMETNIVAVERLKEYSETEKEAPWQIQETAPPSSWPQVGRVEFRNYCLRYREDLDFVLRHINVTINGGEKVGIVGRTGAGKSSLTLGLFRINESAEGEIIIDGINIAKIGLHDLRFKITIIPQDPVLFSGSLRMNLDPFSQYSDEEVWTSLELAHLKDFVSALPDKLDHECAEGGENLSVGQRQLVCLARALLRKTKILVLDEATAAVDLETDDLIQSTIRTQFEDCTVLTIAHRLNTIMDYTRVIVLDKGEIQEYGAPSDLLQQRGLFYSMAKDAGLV

[2] = biological target: ATP-dependent translocase ABCB1 (Homo sapiens, UniProt P08183); test: TP_TRANSPORTER: inhibition of Adriamycin efflux (Adriamycin: 10 uM, JTV-519: 10 uM) in K562/MDR cells; format: functional, cell-based
Chain of ATP-dependent translocase ABCB1 (P08183 whole entry): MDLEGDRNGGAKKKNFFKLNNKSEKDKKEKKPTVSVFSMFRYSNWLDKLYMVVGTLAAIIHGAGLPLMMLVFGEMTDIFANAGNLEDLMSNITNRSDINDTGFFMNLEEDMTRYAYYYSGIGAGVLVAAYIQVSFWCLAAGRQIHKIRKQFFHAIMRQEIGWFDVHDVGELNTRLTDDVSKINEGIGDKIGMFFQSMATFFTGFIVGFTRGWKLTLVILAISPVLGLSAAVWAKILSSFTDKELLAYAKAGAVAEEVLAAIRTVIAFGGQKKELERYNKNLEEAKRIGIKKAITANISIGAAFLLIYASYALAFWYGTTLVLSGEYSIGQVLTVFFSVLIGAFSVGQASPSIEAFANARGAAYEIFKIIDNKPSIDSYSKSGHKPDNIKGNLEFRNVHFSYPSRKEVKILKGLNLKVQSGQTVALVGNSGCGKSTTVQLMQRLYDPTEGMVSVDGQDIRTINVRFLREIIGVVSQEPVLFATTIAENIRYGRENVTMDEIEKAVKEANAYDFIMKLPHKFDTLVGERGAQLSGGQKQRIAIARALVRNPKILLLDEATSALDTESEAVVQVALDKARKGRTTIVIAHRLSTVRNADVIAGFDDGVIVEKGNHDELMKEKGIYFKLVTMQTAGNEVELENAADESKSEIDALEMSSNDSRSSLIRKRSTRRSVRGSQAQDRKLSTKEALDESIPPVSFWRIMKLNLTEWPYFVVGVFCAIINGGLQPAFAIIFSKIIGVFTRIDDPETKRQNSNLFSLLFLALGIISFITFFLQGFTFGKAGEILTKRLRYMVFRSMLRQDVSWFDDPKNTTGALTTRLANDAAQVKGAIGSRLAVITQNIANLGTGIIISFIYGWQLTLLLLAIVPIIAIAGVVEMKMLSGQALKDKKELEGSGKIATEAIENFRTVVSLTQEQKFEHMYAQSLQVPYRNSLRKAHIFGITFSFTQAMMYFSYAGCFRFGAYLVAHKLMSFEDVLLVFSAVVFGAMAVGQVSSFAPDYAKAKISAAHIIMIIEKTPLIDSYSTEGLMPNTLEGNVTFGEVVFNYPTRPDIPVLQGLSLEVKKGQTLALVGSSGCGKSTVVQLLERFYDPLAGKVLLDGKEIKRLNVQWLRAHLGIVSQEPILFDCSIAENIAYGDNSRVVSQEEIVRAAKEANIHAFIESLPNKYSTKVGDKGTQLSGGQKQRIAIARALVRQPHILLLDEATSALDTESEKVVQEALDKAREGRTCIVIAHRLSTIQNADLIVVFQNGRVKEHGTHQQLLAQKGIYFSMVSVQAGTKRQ

activity at 500 µM [1]: 58%
Activity [2]: inhibitor [+]
SMILES: COc1ccc2c(c1)CN(C(=O)CCN1CCC(Cc3ccccc3)CC1)CCS2
